Experimental data published in ChEMBL document CHEMBL2034968, “Discovery of novel urea-based hepatitis C protease inhibitors with high potency against protease-inhibitor-resistant mutants” (J Med Chem, 2012).

Experiments:
Hepatitis C virus [1] = assay: Antiviral activity against Hepatitis C virus subtype 1b harboring protease A156S mutant by transient replicon assay; type: functional, organism-based, Hepacivirus hominis; conditions: genotype 1b
[2] = (§1) Oral bioavailability in rat at 5 mg/kg; type: ADME, organism-based; conditions: in vivo
[3] = Terminal half life in rat at 5 mg/kg, po; type: ADME, organism-based; design: dose 5 mg/kg, route oral; conditions: in vivo, read-out: beta t1/2 (converted)
Hepatitis C virus [4] = assay: Antiviral activity against Hepatitis C virus subtype 1b harboring protease A156V mutant by transient replicon assay; type: functional, organism-based, Hepacivirus hominis; conditions: genotype 1b
Hepatitis C virus [5] = assay: Antiviral activity against Hepatitis C virus subtype 1b harboring protease D168V mutant by transient replicon assay; type: functional, organism-based, Hepacivirus hominis; conditions: genotype 1b
Hepatitis C virus [6] = assay: Antiviral activity against Hepatitis C virus subtype 1b harboring protease D168A mutant by transient replicon assay; type: functional, organism-based, Hepacivirus hominis; conditions: genotype 1b
[7] = Maximum drug absorption in rat at 5 mg/kg, po; type: ADME, organism-based; design: dose 5 mg/kg, route oral; conditions: in vivo, read-out: Drug absorption
Rattus norvegicus [8] = assay: Hepatic clearance in rat at 1 mg/kg, iv; type: ADME, organism-based, Liver; design: dose 1 mg/kg, route intravenous; conditions: in vivo
Hepatitis C virus [9] = assay: Resistance index, ratio of EC50 for Hepatitis C virus subtype 1b harboring protease D168V mutant to EC50 for wild type Hepatitis C virus subtype 1b; type: functional, Hepacivirus hominis, genotype 1b
Hepatitis C virus [10] = assay: Antiviral activity against Hepatitis C virus subtype 1b harboring protease A156T mutant by transient replicon assay; type: functional, organism-based, Hepacivirus hominis; conditions: genotype 1b
[11] = Inhibition of HCV 1a protease 1a domain; design: species or system Hepacivirus hominis
Hepatitis C virus [12] = assay: Antiviral activity against Hepatitis C virus subtype 1b harboring protease R155K mutant by transient replicon assay; type: functional, organism-based, Hepacivirus hominis; conditions: genotype 1b
[13] = (§2) AUC in rat at 1 mg/kg, iv; type: ADME, organism-based, Plasma; design: dose 1 mg/kg, route intravenous; conditions: plasma
Hepatitis C virus [14] = assay: Antiviral activity against Hepatitis C virus subtype 1a by stable replicon assay; type: functional, organism-based, Hepacivirus hominis
Hepatitis C virus [15] = assay: Antiviral activity against wild type Hepatitis C virus subtype 1b by transient replicon assay; type: functional, organism-based, Hepacivirus hominis; conditions: genotype 1b
Hepatitis C virus [16] = assay: Antiviral activity against Hepatitis C virus subtype 1b by stable replicon assay; type: functional, organism-based, Hepacivirus hominis; conditions: genotype 1b
Hepatitis C virus [17] = assay: Resistance index, ratio of EC50 for Hepatitis C virus subtype 1b harboring protease R155K mutant to EC50 for wild type Hepatitis C virus subtype 1b; type: functional, Hepacivirus hominis, genotype 1b
Hepatitis C virus [18] = assay: Resistance index, ratio of EC50 for Hepatitis C virus subtype 1b harboring protease D168A mutant to EC50 for wild type Hepatitis C virus subtype 1b; type: functional, Hepacivirus hominis, genotype 1b
[19] = (§3) AUC in rat at 5 mg/kg, po; type: ADME, organism-based, Plasma; design: dose 5 mg/kg, route oral; conditions: plasma
Rattus norvegicus [20] = assay: Dose normalized AUC in rat at 5 mg/kg, po; type: ADME, organism-based; design: dose 5 mg/kg, route oral; conditions: in vivo
Hepatitis C virus [21] = assay: Ratio of EC50 for TMC-435350 to EC50 for compound against Hepatitis C virus subtype 1b harboring protease R155K mutant by transient replicon assay; type: functional, Hepacivirus hominis, genotype 1b
[22] = Terminal half life in rat liver at 5 mg/kg, po; type: ADME, organism-based; design: dose 5 mg/kg, route oral; conditions: read-out: beta t1/2 (converted)
Hepatitis C virus [23] = assay: Ratio of EC50 for TMC-435350 to EC50 for compound against wild type Hepatitis C virus subtype 1b by transient replicon assay; type: functional, Hepacivirus hominis, genotype 1b
Hepatitis C virus [24] = assay: Ratio of EC50 for TMC-435350 to EC50 for compound against Hepatitis C virus subtype 1b harboring protease D168A mutant by transient replicon assay; type: functional, Hepacivirus hominis, genotype 1b
Hepatitis C virus [25] = assay: Ratio of EC50 for TMC-435350 to EC50 for compound against Hepatitis C virus subtype 1b harboring protease D168V mutant by transient replicon assay; type: functional, Hepacivirus hominis, genotype 1b
Hepatitis C virus [26] = assay: Ratio of EC50 for TMC-435350 to EC50 for compound against Hepatitis C virus subtype 1b harboring protease A156S mutant by transient replicon assay; type: functional, Hepacivirus hominis, genotype 1b
Hepatitis C virus [27] = assay: Ratio of EC50 for danoprevir to EC50 for compound against Hepatitis C virus subtype 1b harboring protease R155K mutant by transient replicon assay; type: functional, Hepacivirus hominis, genotype 1b
Rattus norvegicus [28] = assay: as §1; type: ADME, organism-based; conditions: in vivo
[29] = AUC in rat liver at 5 mg/kg, po; type: ADME, organism-based; design: dose 5 mg/kg, route oral
Hepatitis C virus [30] = assay: Ratio of EC50 for danoprevir to EC50 for compound against Hepatitis C virus subtype 1b harboring protease A156V mutant by transient replicon assay; type: functional, Hepacivirus hominis, genotype 1b
Hepatitis C virus [31] = assay: Ratio of EC50 for TMC-435350 to EC50 for compound against Hepatitis C virus subtype 1b harboring protease A156V mutant by transient replicon assay; type: functional, Hepacivirus hominis, genotype 1b
Hepatitis C virus [32] = assay: Ratio of EC50 for danoprevir to EC50 for compound against wild type Hepatitis C virus subtype 1b by transient replicon assay; type: functional, Hepacivirus hominis, genotype 1b
Rattus norvegicus [33] = assay: as §2; type: ADME, organism-based, Plasma; design: dose 1 mg/kg, route intravenous; conditions: in vivo
Liver = assay: Ratio of drug level in liver to plasma in rat at 5 mg/kg, po; type: ADME, organism-based; design: dose 5 mg/kg, route oral; conditions: other tissue
Hepatitis C virus [34] = assay: Ratio of EC50 for danoprevir to EC50 for compound against Hepatitis C virus subtype 1b harboring protease D168A mutant by transient replicon assay; type: functional, Hepacivirus hominis, genotype 1b
Hepatitis C virus [35] = assay: Ratio of EC50 for danoprevir to EC50 for compound against Hepatitis C virus subtype 1b harboring protease A156T mutant by transient replicon assay; type: functional, Hepacivirus hominis, genotype 1b
Hepatitis C virus [36] = assay: Ratio of EC50 for danoprevir to EC50 for compound against Hepatitis C virus subtype 1b harboring protease D168V mutant by transient replicon assay; type: functional, Hepacivirus hominis, genotype 1b
Hepatitis C virus [37] = assay: Ratio of EC50 for TMC-435350 to EC50 for compound against Hepatitis C virus subtype 1b harboring protease A156T mutant by transient replicon assay; type: functional, Hepacivirus hominis, genotype 1b
Rattus norvegicus [38] = assay: as §3; type: ADME, organism-based, Plasma; design: dose 5 mg/kg, route oral; conditions: in vivo
Hepatitis C virus [39] = assay: Ratio of EC50 for danoprevir to EC50 for compound against Hepatitis C virus subtype 1b harboring protease A156S mutant by transient replicon assay; type: functional, Hepacivirus hominis, genotype 1b

SMILES	EC50 (Hepatitis C virus [1]) [nM]	bioavailability [2] [%]	half-life [3] [h]	EC50 (Hepatitis C virus [4]) [nM]	EC50 (Hepatitis C virus [5]) [nM]	EC50 (Hepatitis C virus [6]) [nM]	Fa [7] [%]	CLH (Rattus norvegicus [8]) [mL/min/kg]	Ratio EC50 (Hepatitis C virus [9])	EC50 (Hepatitis C virus [10]) [nM]	IC50 [11] [nM]	EC50 (Hepatitis C virus [12]) [nM]	AUC [13] [ng·h/mL]	EC50 (Hepatitis C virus [14]) [nM]	EC50 (Hepatitis C virus [15]) [nM]	EC50 (Hepatitis C virus [16]) [nM]	Ratio EC50 (Hepatitis C virus [17])	Ratio EC50 (Hepatitis C virus [18])	AUC [19] [ng·h/mL]	AUC/dose (Rattus norvegicus [20]) [kg·µg·h/mL/mg]	other results
COc1ccc2c(O[C@@H]3C[C@H]4C(=O)N[C@]5(C(=O)NS(=O)(=O)C6CC6)C[C@H]5/C=C\CCCCC[C@H](NC(=O)N5CCC5)C(=O)N4C3)cc(-c3nc(C(C)C)cs3)nc2c1C	0.2	4.2	2.26	8	97	60	7.6	160.3	<1000	2	4	20	107	0.8	0.1	0.4	<1000	<1000	40.5	0.008	
COc1ccc2c(O[C@@H]3C[C@H]4C(=O)N[C@]5(C(=O)NS(=O)(=O)C6CC6)C[C@H]5/C=C\CCCCC[C@H](NC(=O)N5CC(F)(F)C5)C(=O)N4C3)cc(-c3nc(C(C)C)cs3)nc2c1C		4	0.806	6	58	15	6.8	91.03	<1000	1	2	14	203	0.8	0.1	0.5	<1000	<1000	69	0.014	
COc1ccc2c(O[C@@H]3C[C@H]4C(=O)N[C@]5(C(=O)NS(=O)(=O)C6CC6)C[C@H]5/C=C\CCCCC[C@H](NC(=O)N5CCCCC5)C(=O)N4C3)cc(-c3nc(C(C)C)cs3)nc2c1C	0.1		1.16	7	79	32	20	83.4		2	5	6		0.4	0.04	0.5				0.053	Ratio EC50 (Hepatitis C virus [21]): 9; half-life [22]: 8.1 h; Ratio EC50 (Hepatitis C virus [23]): 23; Ratio EC50 (Hepatitis C virus [24]): 5; Ratio EC50 (Hepatitis C virus [25]): 2; Ratio EC50 (Hepatitis C virus [26]): 3.5; Ratio EC50 (Hepatitis C virus [27]): 14; F (Rattus norvegicus [28]): 9.4%; AUC [29]: 308000 ng·h/mL; Ratio EC50 (Hepatitis C virus [30]): 1; Ratio EC50 (Hepatitis C virus [31]): 49; Ratio EC50 (Hepatitis C virus [32]): 5; AUC (Rattus norvegicus [33]): 268 ng·h/mL; Ratio (Liver): 1158; Ratio EC50 (Hepatitis C virus [34]): 1; Ratio EC50 (Hepatitis C virus [35]): 5; Ratio EC50 (Hepatitis C virus [36]): 0.3; Ratio EC50 (Hepatitis C virus [37]): 43; AUC (Rattus norvegicus [38]): 266 ng·h/mL; Ratio EC50 (Hepatitis C virus [39]): 21
